{"source": "paper PMC7904827", "about": "(Scientific Reports, 2021)", "key": {"[1]": {"experiment": "Approximate solubility in distilled water at room temperature", "type": "physicochemical", "details": "distilled water, room temperature", "protocol": "The syntheses of the target prodrugs were performed according to a known three-step procedure with some modifications. Target prodrugs GK-667, GK-678 and GK-691 were obtained in 34%, 37% and 17% overall yields, respectively. […] The resulting solutions remained physically stable for at least two hours at room temperature."}, "[2]": {"experiment": "Solubility and stability of the GK-667 dosing solution in saline", "type": "physicochemical", "protocol": "This dose of the prodrug was easily soluble in a commercially available saline solution (sodium chloride 0.9%, B-Braun, Germany) at a concentration of 5 mg/mL, which is convenient for administration to rabbits as an experimental animal model and could also be used for future pharmacodynamics experiments.\n(§1) GK-667 was freshly dissolved in saline (5 mg/mL) before each administration. New Zealand White male rabbits (n = 6, ∼3.8 kg) received GK-667 (5 mg/kg) administered as a single slow (2 min) intravenous dose bolus to the ear marginal vein. Blood (∼1 mL) was sampled from veins on the contralateral ear at selected time points after drug administration (5 min to 9 h) into BD Vacutainers (BD Biosciences, Plymouth, UK) containing lithium heparin. Collected blood samples were immediately centrifuged (2 min, 3000 rpm, 4 °C), and plasma samples were harvested directly."}, "[3]": {"experiment": "Post-preparation stability of the extracted analytes in autosampler (8 °C)", "type": "physicochemical", "protocol": "Linearity was tested within the concentration range of 0.2 – 100 μM for all compounds in DMEM, the buffer and plasma and 10-100 pmol/106cells in NVCMs (method I). For […]\nUnweighted and weighted (1/x and 1/x2) linear regression was applied to obtain the best fitting calibration model.\nAccuracy and precision were calculated at 4 levels (LLOQ, low, medium and high concentrations). Five quality control (QC) samples were used for all concentration levels. […]\nStability of the analytes was examined at low and high concentrations. Process s tability (n=3) in plasma was tested for 20 min at either laboratory temperature (23 °C) or on ice (4 °C, only for GK-667). Post-preparation stability was examined for 8 to 10 h in an autosampler (8 °C, n=3) for all treated matrices. […]\nplasma was tested at -80 °C and the freezing cycle was repeated twice (n=3). The buffer, DMEM, NVCMs and plasma samples containing GK -667 from in vitro studies and from first intervals of pharmacokinetic study (up to 20 min) w ere treated and analyzed immediately after […]"}, "[4]": {"experiment": "ICRF-193 release from GK-667 in rabbit plasma in vitro", "type": "in vitro ADME", "details": "GK-667 10 and 100 µM, 37 °C", "protocol": "(§2) From all of the above described experiments, samples were taken at predefined intervals, treated and immediately analyzed. All experiments were performed in four replicates, and the results are expressed as the mean ± SD."}, "[5]": {"experiment": "In vivo pharmacokinetic study of GK-667 in rabbits, noncompartmental analysis", "parameters": "species or system rabbit", "protocol": "as §1\nPlasma samples taken 0 to 20 min after GK-667 administration were immediately processed by the addition of formic acid and precipitation with ice-cold methanol. The supernatants were then analyzed for all analytes, including the intact prodrug. This was essential to ensure the appropriate determination of highly labile GK-667 at the first sampling intervals, and the whole procedure was validated for this purpose. […] Thus, all following plasma samples were immediately shock-frozen in liquid nitrogen and stored at -80 °C until analysis.\nFor drug administration and blood sampling, light anesthesia was induced in rabbits with a mixture of ketamine (25 mg/kg, i.m.) and midazolam (2.5 mg/kg, i.m.); sedation was then maintained with midazolam when needed. The blood withdrawn from the animals was compensated with an appropriate volume of sterile saline. All in vivo experiments and procedures were approved and supervised by the Animal Welfare Committee of the Faculty of Medicine in Hradec Kralove (Charles University), and the experiments were performed in compliance with the ARRIVE guidelines.\nStandard noncompartmental analysis was performed using Kinetica software (version 4.0, Thermo Fisher Scientific Inc., USA). The population parameter estimation for nonlinear mixed effect models was conducted using Monolix version 2019R2 software (Antony, France: Lixoft SAS, 2019, http://lixoft.com/products/monolix/). The stochastic approximation expectation maximization (SAEM) algorithm coupled with Markov Chain Monte Carlo (MCMC) without the use of approximations (linearization) was used for the estimation of the likelihood. For evaluation of the goodness-of-fit, the following plots were assessed: observed versus individual predicted concentrations, weighted residuals versus time and weighted residuals versus predictions. Individual parameter values were obtained as empirical Bayes estimates. A visual predictive check with 1000 simulated data sets was performed."}, "[6]": {"experiment": "Incubation in DMEM in an incubator (5% CO2, 37 °C) without cells", "type": "in vitro ADME", "details": "100 µM", "protocol": "Herein, incubations were performed in DMEM (100 μM) in a CelCulture Incubator (5% CO2, 37 °C, ESCO, USA) to mimic the conditions of the in vitro cytoprotective assay, and the results were compared to those from the saline buffer (116 mM NaCl, 5.3 mM KCl, 1.2 mM MgSO4, 1 mM CaCl2, 1.13 mM NaH2PO4, 5 mM glucose, and 20 mM HEPES, pH = 7.4).\nas §2"}}, "note": "Counter-ions that a name gives are not always drawn."}
{"molecule": "C[C@H]([C@H](C)N1CC(=O)N(COC(=O)CN)C(=O)C1)N1CC(=O)N(COC(=O)CN)C(=O)C1", "note": "[GK-667, meso-2,3-bis(4-(2-aminoacetoxymethyl)-3,5-dioxopiperazin-1-yl)butane tetrahydrochloride]", "values": [{"measurement": "solubility", "setting": "[1]", "result": "~20", "unit": "mg/mL"}, {"measurement": "time the saline solution stays physically and chemically stable", "setting": "[2]; 5 mg/mL in saline, 20 °C", "result": "at least 1 h"}, {"measurement": "GK-667 concentration remaining in saline solution", "setting": "[2]; 5 mg/mL in saline, 20 °C, 1 h", "result": "≥ 95 % of the initial amount"}, {"measurement": "solubility", "setting": "[2]; saline (sodium chloride 0.9%)", "result": "≥ 5", "unit": "mg/mL"}, {"measurement": "percentage of initial concentration in autosampler", "setting": "[3]; extracted DMEM, 100 µM, 0 h", "result": 100.1, "unit": "%"}, {"measurement": "percentage of initial concentration in autosampler", "setting": "[3]; extracted DMEM, 100 µM, 8 h", "result": 92.2, "unit": "%"}, {"measurement": "percentage of initial concentration in autosampler", "setting": "[3]; extracted DMEM, 100 µM, 10 h", "result": 90.2, "unit": "%"}, {"measurement": "percentage of initial concentration in autosampler", "setting": "[3]; extracted NVCMs, 100 pmol/106 cells, 0 h", "result": 103.3, "unit": "%"}, {"measurement": "percentage of initial concentration in autosampler", "setting": "[3]; extracted NVCMs, 100 pmol/106 cells, 8 h", "result": 105.2, "unit": "%"}, {"measurement": "percentage of initial concentration in autosampler", "setting": "[3]; extracted NVCMs, 100 pmol/106 cells, 10 h", "result": 103.3, "unit": "%"}, {"measurement": "percentage of initial concentration in autosampler", "setting": "[3]; extracted buffer, 100 µM, 0 h", "result": 99.5, "unit": "%"}, {"measurement": "percentage of initial concentration in autosampler", "setting": "[3]; extracted buffer, 100 µM, 8 h", "result": 92.9, "unit": "%"}, {"measurement": "percentage of initial concentration in autosampler", "setting": "[3]; extracted buffer, 100 µM, 10 h", "result": 92.8, "unit": "%"}, {"measurement": "percentage of initial concentration in autosampler", "setting": "[3]; extracted plasma, 100 µM, 0 h", "result": 101.5, "unit": "%"}, {"measurement": "percentage of initial concentration in autosampler", "setting": "[3]; extracted plasma, 100 µM, 8 h", "result": 102.1, "unit": "%"}, {"measurement": "percentage of initial concentration in autosampler", "setting": "[3]; extracted plasma, 100 µM, 10 h", "result": 102.7, "unit": "%"}, {"measurement": "metabolism of the prodrug in plasma", "setting": "[4]", "result": "rapidly metabolized"}, {"measurement": "Cmax", "setting": "[5]; male, New Zealand White, rabbit, plasma, iv, 5 mg/kg, rabbits n = 6, GK-667 5 mg/kg i.v., NCA", "result": 2700, "unit": "nM"}, {"measurement": "Tmax", "setting": "[5]; male, New Zealand White, rabbit, plasma, iv, rabbits n = 6, GK-667 5 mg/kg i.v., NCA, read-out: Tmax (converted)", "result": 5, "unit": "min"}, {"measurement": "concentration at 5 min", "setting": "[5]; male, New Zealand White, rabbit, plasma, iv, rabbits, GK-667 5 mg/kg i.v., 5th min, read-out: mean plasma concentration of the prodrug", "result": 2700, "unit": "nM"}, {"measurement": "concentration at 10 min", "setting": "[5]; male, New Zealand White, rabbit, plasma, iv, rabbits, GK-667 5 mg/kg i.v., 10th min, read-out: mean plasma concentration of the prodrug", "result": 400, "unit": "nM"}, {"measurement": "concentration at 20 min", "setting": "[5]; male, New Zealand White, rabbit, plasma, iv, rabbits, GK-667 5 mg/kg i.v., 20 min, in all but one animal, read-out: plasma concentration of the prodrug (below LLOQ)", "result": "< 100", "unit": "nM"}, {"measurement": "time to essentially complete clearance of the parent compound from plasma", "setting": "[5]; rabbits, after injection of GK-667", "result": "≤ 10", "unit": "min"}, {"measurement": "degradation in DMEM without cells", "setting": "[6]", "result": "rapidly degraded"}]}
